Laboratory results from USRE47193E1, “Selectively substituted quinoline compounds” (EISAI R&D MANAGEMENT CO., LTD., priority 2013, dated 2019).
“Also recorded” adds a separate entry of the source.

Key:
[1] = test system: Pristane DBA/1 lupus disease model; assay: Pristane: DBA/1 lupus disease model; type: in vivo, mouse; details: for auto-antibody specificities (titers): Pristane model, particularly robust impact on anti-RiboP titers
Method: (§1) FIG. 3A through FIG. 3E show results of testing compound ER-899742 in the Pristane: DBA/1 strain lupus disease model. Figure Legend: Female DBA/1 mice at 9 weeks of age were given an intraperitoneal injection of 0.5 ml pristane or PBS. At 9 weeks post-pristane animals were bled for auto-antibody titers. Once-a-day oral dosing with Vehicle (Veh; 0.5% methyl-cellulose) or 33 mg/kg, 100 mg/kg, or 300 mg/kg of ER-899742 was begun 10 weeks after pristane injection and continued for 13 weeks of treatment. Mice were euthanized after 13 weeks of compound treatment, and anti-dsDNA (FIG. 3A), anti-Sm/nRNP (FIG. 3B), anti-histone (FIG. 3C) and anti-RiboP (FIG. 3D) titers were measured in blood plasma samples by ELISA (statistical significance of treatment versus vehicle determined by ANOVA with Dunnett's post-test). (FIG. 3E) The expression of IFN-regulated genes in whole blood was measured by a qPCR panel after 13 weeks of treatment with 300 mg/kg of ER-899742, and an IFN gene signature score was calculated (see Pharmacology Materials and Methods section for details regarding IFN score calculation).
FIG. 5A through FIG. 5D show results of testing ER-899464 in the Pristane disease model in the same experiment as that shown in FIG. 3A through FIG. 3E. Figure Legend: Mice were euthanized after 13 weeks of compound treatment, and anti-dsDNA (FIG. 5A), anti-Sm/nRNP (FIG. 5B), anti-histone (FIG. 5C), and anti-RiboP (FIG. 5D) titers were measured in blood plasma samples by ELISA (statistical significance of treatment versus vehicle determined by ANOVA with Dunnett's post-test).
(§2) FIG. 7A through FIG. 7G show the effect of dosing with ER-899742 in Pristane-induced disease in DBA/1J mice. Figure Legend: Female DBA/1 mice at 9 weeks of age were given an intraperitoneal injection of 0.5 ml pristane or PBS. At 10 weeks post-pristane animals were bled for autoantibody titers. Once-a-day oral dosing with Vehicle (Veh; 0.5% methyl-cellulose) or 33 mg/kg, or 300 mg/kg of ER-899742 was begun 11 weeks after pristane injection and continued for 14 weeks of treatment. Mice were euthanized after 14 weeks of compound treatment, and anti-dsDNA (FIG. 7A), anti-RiboP (FIG. 7B), anti-Sm/nRNP (FIG. 7C), and anti-histone (FIG. 7D) titers were measured in blood plasma samples by ELISA (statistical significance of treatment versus vehicle determined by ANOVA with Dunnett's post-test). The same plasma was used to measure total IgG titers by ELISA at the end of dosing (FIG. 7E). […] Pristane-treated mice in this experiment developed arthritis, with swollen joints in the rear paws. Arthritis scores were assigned according to severity, each paw was scored on a scale of 0-4 based on signs of swelling and inflammation. Scores were summed for the two hind paws assessed on each animal, and graphed in FIG. 7F with statistical assessment as for ELISA titers above.
FIG. 8 contains the result of treating for a month with ER-899742 in Pristane-induced disease in DBA/1J mice with advanced disease, after development of high levels of autoantibody. Figure Legend: DBA/1J mice were injected i.p. with pristane at 10 weeks of age. Three months later anti-RiboP and anti-dsDNA titers were taken, and animals randomized into groups with matching mean titers. Groups were sacrificed after one, two or four weeks of oral dosing with ER-899742, and RiboP titers measured in serum.
Mouse Lupus Disease Models.
Mouse lupus disease model strains. Female NZBWF1/J mice were purchased from Jackson Labs (Bar Harbor, Me.), both of which manifest with spontaneous lupus disease. Female DBA/1 mice were purchased from Harlan Laboratories (Indianapolis, Ind.) and at the indicated ages given an intraperitoneal injection of 0.5 ml pristane (2,6,10,14-Tetramethylpentadecane; Sigma, St. Louis, Mo.) to chemically induce lupus disease or of 0.5 ml PBS to generate age-matched, non-diseased control mice.
Assessment of auto-antibody titers by ELISA. […]

IFN-regulated genes = assay: Interferon gene expression in whole blood (qPCR TLDA panel, IFN score), Pristane model; type: in vivo, mouse; details: for disease up-regulated IFN-regulated genes reduced by treatment vs. vehicle: 13 weeks of treatment, Student's t-test
Method: as §1, §2
Assessment of interferon gene expression in whole blood. The expression of IFN-regulated genes in whole blood was measured by qPCR. Briefly, mice were euthanized, blood was collected via the vena cava, and 100 ul was preserved in tubes containing RNAlater (Ambion, Austin Tex.). Total RNA was isolated using the Mouse RiboPure Blood RNA Isolation Kit (Ambion). RNA concentrations were determined using a NanoDrop ND-1000 spectrophotometer (Thermo Scientific, Waltham Mass.). First strand cDNA was synthesized from 100 ng total RNA using SuperScript® VILO™ Master Mix (Life Technologies, Grand Island, N.Y.). After reverse transcription, cDNA was diluted with nuclease-free water and mixed with TaqMan® Fast Advanced Master Mix (Applied Biosystems). The mixture was then applied to a custom TaqMan® Low Density Array (TLDA) manufactured by Applied Biosystems, and qPCR was performed on the ABI 7900HT Fast Real-time PCR System (Applied Biosystems). Raw data was collected using RQ Manager 1.2.1 (Applied Biosystems) and analyzed using GeneData Analyst 2.2 software (GeneData).
The TLDA panel contained as many as 45 target genes chosen from Table 9 below, and 3 housekeeping genes for normalization. The housekeeping gene Hprt1 was chosen for normalization based on coefficient-of-variation. Relative quantities were determined for the target genes and used to calculate a fold change for each diseased mouse relative to the non-diseased control group receiving intraperitoneal PBS injection only. […]

[2] = 33 or 300 mg/kg QD oral, 14 weeks of treatment

C[C@@H]1CN(c2ccc(C#N)c3ncccc23)C[C@H](C(=O)NC2CCN(C)CC2)O1 [ER-899464, (2R,6R)-4-(8-cyanoquinolin-5-yl)-6-methyl-N-(1-methylpiperidin-4-yl)morpholine-2-carboxamide]
auto-antibody specificities (titers) [1]: suppressed various auto-antibody specificities
disease up-regulated IFN-regulated genes reduced by treatment vs. vehicle (IFN-regulated genes): none of the disease up-regulated genes shown in FIG. 3B were affected

C[C@@H]1CN(c2ccc(C#N)c3ncccc23)C[C@H](C(=O)N[C@H]2CNC[C@H]2F)O1.Cl [ER-899742, (2R,6R)-4-(8-cyanoquinolin-5-yl)-N-[(3S,4R)-4-fluoropyrrolidin-3-yl]-6-methylmorpholine-2-carboxamide hydrochloride]
autoantibody against dsDNA and RiboP [1, 2]: Control of autoantibody against dsDNA and RiboP was seen
total IgG titers [1, 2]: minimal changes in overall IgG level
auto-antibody specificities (titers) [1]: suppressed various auto-antibody specificities
arthritis scores (hind paws) ([1]; Pristane-treated DBA/1 mice, 33 or 300 mg/kg, 14 weeks, hydrochloride): Dose-dependent statistically significant suppression was observed; also recorded: Control of arthritis
reversal of anti-RiboP or DNA titers ([1]; advanced disease, after 28 days of oral dosing): no statistically significant reversal
interferon score, treated vs vehicle-treated (IFN-regulated genes; 13 weeks of treatment with 300 mg/kg): no significant difference
disease up-regulated IFN-regulated genes reduced by treatment vs. vehicle (IFN-regulated genes): six genes were significantly reduced
interferon score, treated vs vehicle-treated (IFN-regulated genes; 14 weeks of treatment experiment (FIG. 7)): no significant difference
disease-related interferon-modulated genes downregulated (IFN-regulated genes; 14 weeks of treatment experiment (FIG. 7G)): downregulation of five out of 28 disease-related interferon-modulated genes
expression of IFN-modulated genes in whole blood (IFN-regulated genes; Pristane model, summary of key findings): Decreased expression of some IFN-modulated genes
